Six compounds from patent US12559506B2, “Indazole based compounds and associated methods of use” (Arvinas Operations, Inc., priority 2021, dated 2026) can be followed below.

Assay [1] addresses T1, G2019S LRRK2 (Homo sapiens, UniProt Q5S007, G2019S).
T1 construct: expressed in transfected cells; host or cells: HEK293 (ATCC CRL-1573), transient transfection, mammalian expression vector with ubiquitin promoter
As to the kind of experiment: LRRK2 degradation assay, HiBit-tagged G2019S LRRK2 expressed from plasmid in HEK293 cells (Nano-Glo Dual-Luciferase). The class given is cell-based. The following applies: HiBit-tagged G2019S LRRK2 in HEK293 cells, 24 hours. An outline of the steps: (§1)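 HEK293 cells co-transfected with C-terminal HiBiT-tagged LRRK2 (WT or G2019S, ubiquitin promoter) and firefly luciferase, then dosed 24 h at 37 °C. HiBiT/firefly ratio normalized to DMSO median; DC50 and Dmax from per-plate curve fits, six replicates over two days.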
For orientation: With HiBiT, luminescence reflects the tagged protein that the partner subunit can reach.

The target in assay [2] is T2, wildtype LRRK2 (Homo sapiens, UniProt Q5S007).
T2 construct: expressed in transfected cells; host or cells: HEK293 (ATCC CRL-1573), transient transfection, mammalian expression vector with ubiquitin promoter
T2 sequence (Q5S007 whole entry): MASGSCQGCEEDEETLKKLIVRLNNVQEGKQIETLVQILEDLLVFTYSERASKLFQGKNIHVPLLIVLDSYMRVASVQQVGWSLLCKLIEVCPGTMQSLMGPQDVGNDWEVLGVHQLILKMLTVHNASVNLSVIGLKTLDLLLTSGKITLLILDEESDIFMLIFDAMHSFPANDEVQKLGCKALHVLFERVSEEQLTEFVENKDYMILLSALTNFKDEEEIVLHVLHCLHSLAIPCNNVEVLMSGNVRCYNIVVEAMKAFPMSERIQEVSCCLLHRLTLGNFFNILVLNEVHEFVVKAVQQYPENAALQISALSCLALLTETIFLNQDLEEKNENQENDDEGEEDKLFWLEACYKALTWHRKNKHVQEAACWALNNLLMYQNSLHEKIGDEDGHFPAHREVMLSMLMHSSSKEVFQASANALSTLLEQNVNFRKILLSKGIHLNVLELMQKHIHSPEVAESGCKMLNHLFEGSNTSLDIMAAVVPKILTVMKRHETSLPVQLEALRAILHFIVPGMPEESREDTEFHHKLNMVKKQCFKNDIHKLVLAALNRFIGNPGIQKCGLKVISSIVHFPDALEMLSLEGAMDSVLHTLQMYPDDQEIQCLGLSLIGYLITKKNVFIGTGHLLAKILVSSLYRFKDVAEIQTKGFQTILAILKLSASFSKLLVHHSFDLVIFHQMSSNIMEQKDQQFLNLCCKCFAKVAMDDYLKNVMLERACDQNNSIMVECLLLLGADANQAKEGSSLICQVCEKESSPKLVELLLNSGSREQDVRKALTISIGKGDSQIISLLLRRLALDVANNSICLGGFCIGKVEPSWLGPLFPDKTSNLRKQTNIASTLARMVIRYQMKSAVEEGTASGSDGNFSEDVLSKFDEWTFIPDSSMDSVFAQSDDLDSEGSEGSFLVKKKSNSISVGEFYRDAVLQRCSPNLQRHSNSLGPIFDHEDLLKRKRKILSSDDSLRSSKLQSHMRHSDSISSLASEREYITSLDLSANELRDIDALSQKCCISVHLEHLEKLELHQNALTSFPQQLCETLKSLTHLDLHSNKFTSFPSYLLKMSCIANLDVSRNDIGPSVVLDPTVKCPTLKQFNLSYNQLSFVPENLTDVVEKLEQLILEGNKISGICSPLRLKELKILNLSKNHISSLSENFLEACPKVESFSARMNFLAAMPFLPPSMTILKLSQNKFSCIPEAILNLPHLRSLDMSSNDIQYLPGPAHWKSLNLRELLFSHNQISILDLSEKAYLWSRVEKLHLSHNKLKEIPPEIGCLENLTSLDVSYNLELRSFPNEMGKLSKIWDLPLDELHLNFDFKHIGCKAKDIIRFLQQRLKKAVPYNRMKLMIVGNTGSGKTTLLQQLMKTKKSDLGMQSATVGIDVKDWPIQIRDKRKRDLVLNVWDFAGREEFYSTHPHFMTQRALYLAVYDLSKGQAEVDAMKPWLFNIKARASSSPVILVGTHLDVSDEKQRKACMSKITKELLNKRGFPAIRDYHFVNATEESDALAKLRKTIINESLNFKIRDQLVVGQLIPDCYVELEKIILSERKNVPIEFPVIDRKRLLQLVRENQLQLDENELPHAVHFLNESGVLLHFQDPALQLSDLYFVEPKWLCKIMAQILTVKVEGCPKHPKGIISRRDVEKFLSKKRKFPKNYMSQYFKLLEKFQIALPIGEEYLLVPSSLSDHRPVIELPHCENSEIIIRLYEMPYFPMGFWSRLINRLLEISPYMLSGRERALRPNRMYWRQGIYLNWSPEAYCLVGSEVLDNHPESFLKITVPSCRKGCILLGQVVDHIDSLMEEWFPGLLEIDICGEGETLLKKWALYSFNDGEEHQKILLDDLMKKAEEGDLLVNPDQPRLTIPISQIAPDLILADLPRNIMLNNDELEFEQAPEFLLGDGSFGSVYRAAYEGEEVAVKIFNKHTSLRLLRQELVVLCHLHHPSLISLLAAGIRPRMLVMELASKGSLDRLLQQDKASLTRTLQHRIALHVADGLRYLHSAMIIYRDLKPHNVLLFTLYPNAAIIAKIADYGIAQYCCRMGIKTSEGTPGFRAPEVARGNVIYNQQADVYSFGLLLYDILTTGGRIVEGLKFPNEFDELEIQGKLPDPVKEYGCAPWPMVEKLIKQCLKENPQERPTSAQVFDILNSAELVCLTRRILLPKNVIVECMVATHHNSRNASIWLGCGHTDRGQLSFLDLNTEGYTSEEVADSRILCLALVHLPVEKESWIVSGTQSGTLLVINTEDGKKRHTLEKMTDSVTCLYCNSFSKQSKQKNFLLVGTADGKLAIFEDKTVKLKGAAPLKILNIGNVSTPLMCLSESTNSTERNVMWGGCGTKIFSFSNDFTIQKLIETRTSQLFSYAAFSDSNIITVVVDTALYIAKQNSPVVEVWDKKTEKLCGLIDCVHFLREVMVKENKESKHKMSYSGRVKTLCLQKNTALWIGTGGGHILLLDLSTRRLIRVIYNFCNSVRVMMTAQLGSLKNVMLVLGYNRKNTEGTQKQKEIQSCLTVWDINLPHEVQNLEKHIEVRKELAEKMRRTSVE
As to the kind of experiment: LRRK2 degradation assay, HiBit-tagged wildtype LRRK2 expressed from plasmid in HEK293 cells (Nano-Glo Dual-Luciferase). It counts as cell-based. The following applies: HiBit-tagged wildtype LRRK2 in HEK293 cells, 24 hours; for Dmax: read-out: **WT Dmax (%); for DC50: read-out: *WT DC50. The gist of the method: as §1

T1 sequence (Q5S007 whole entry G2019S): as the sequence (Q5S007 whole entry) above, with G2019S counted along it

Turning to `CC1(Oc2ccc3n[nH]c(-c4cc(N5CCN(CC6(F)CCN(C(=O)C7CCN(c8ccc9c(c8)C(=O)N(C8CCC(=O)NC8=O)C9=O)CC7)CC6)CC5)ncn4)c3c2)CC1` (stereo not drawn) [Compound 96, 2-(2,6-dioxo-3-piperidyl)-5-[4-[4-fluoro-4-[[4-[6-[5-(1-methylcyclopropoxy)-1H-indazol-3-yl]pyrimidin-4-yl]piperazin-1-yl]methyl]piperidine-1-carbonyl]-1-piperidyl]isoindoline-1,3-dione], the 50% degradation concentration (DC50) in assay [1] and in assay [2] was less than 10 nM each time. The greatest degradation seen (Dmax) in assay [1] and in assay [2] was 50 to 70% in each case.

For `CC1(Oc2ccc3n[nH]c(-c4cc(N5CCN(CC6(F)CCN(C(=O)C7CN(c8ccc9c(c8)C(=O)N(C8CCC(=O)NC8=O)C9=O)C7)CC6)CC5)ncn4)c3c2)CC1` (stereo not drawn) [Compound 136, 2-(2,6-dioxo-3-piperidyl)-5-[3-[4-fluoro-4-[[4-[6-[5-(1-methylcyclopropoxy)-2H-indazol-3-yl]pyrimidin-4-yl]piperazin-1-yl]methyl]piperidine-1-carbonyl]azetidin-1-yl]isoindoline-1,3-dione], the half-maximal degradation concentration (DC50) in assay [1] and in assay [2] was less than 10 nM in each case. In addition, the maximal degradation (Dmax) in assay [1] and in assay [2] was 50 to 70% throughout.

Turning to `CC1(Oc2ccc3n[nH]c(-c4cc(N5CCC(CN6CCN(CC7(F)CN(c8ccc9c(c8)C(=O)N(C8CCC(=O)NC8=O)C9=O)C7)CC6)CC5)ncn4)c3c2)CC1` (stereo not drawn) [Compound 134, 2-(2,6-dioxo-3-piperidyl)-5-[3-fluoro-3-[[4-[[1-[6-[5-(1-methylcyclopropoxy)-2H-indazol-3-yl]pyrimidin-4-yl]-4-piperidyl]methyl]piperazin-1-yl]methyl]azetidin-1-yl]isoindoline-1,3-dione], in assay [1], the DC50 (as a rule, the concentration at which degradation of the target reaches its halfway point) is less than 10 nM and the Dmax – broadly, the largest share of the target that was removed – is 50 to 70%. In assay [2], the maximal degradation (Dmax) is 50 to 70% and the half-maximal degradation concentration (DC50) is less than 10 nM.

Regarding `CC1(Oc2ccc3n[nH]c(-c4cc(N5CCC(CN6CCC(CN7CCN(c8ccc9c(c8)C(=O)N(C8CCC(=O)NC8=O)C9=O)CC7)CC6)CC5)ncn4)c3c2)CC1` (stereo not drawn) [Compound 67, 2-(2,6-dioxo-3-piperidyl)-5-[4-[[1-[[1-[6-[5-(1-methylcyclopropoxy)-2H-indazol-3-yl]pyrimidin-4-yl]-4-piperidyl]methyl]-4-piperidyl]methyl]piperazin-1-yl]isoindoline-1,3-dione], in assay [1], the DC50 was less than 10 nM and the greatest degradation seen (Dmax) is no less than 70%. In assay [2], the Dmax was no less than 70% and the DC50 is less than 10 nM.

`CC1(Oc2ccc3[nH]nc(-c4cc(N5CCC(CC6CCN(C(=O)C7CCN(c8ccc9c(c8)C(=O)N(C8CCC(=O)NC8=O)C9=O)CC7)CC6)CC5)ncn4)c3c2)CC1` (stereo not drawn) [Compound 92, 2-(2,6-dioxo-3-piperidyl)-5-[4-[4-[[1-[6-[5-(1-methylcyclopropoxy)-1H-indazol-3-yl]pyrimidin-4-yl]-4-piperidyl]methyl]piperidine-1-carbonyl]-1-piperidyl]isoindoline-1,3-dione]: in assay [1], the 50% degradation concentration (DC50) lay within 10 to 50 nM and the greatest degradation seen (Dmax) lay within 50 to 70%. Moreover, in assay [2], the greatest degradation seen (Dmax) was 50 to 70% and the half-maximal degradation concentration (DC50) is less than 10 nM.

As to `CC1(Oc2ccc3[nH]nc(-c4ccnc(N5CCC(CC6CCN(C(=O)C7CCN(c8ccc9c(c8)C(=O)N(C8CCC(=O)NC8=O)C9=O)CC7)CC6)CC5)c4)c3c2)CC1` (stereo not drawn) [Compound 93, 2-(2,6-dioxopiperidin-3-yl)-5-(4-{4-[(1-{4-[5-(1-methylcyclopropoxy)-1H-indazol-3-yl]pyridin-2-yl}piperidin-4-yl)methyl]piperidine-1-carbonyl}piperidin-1-yl)-2,3-dihydro-1H-isoindole-1,3-dione], in assay [1], the DC50 lay in the range of 10 to 50 nM and the greatest degradation seen (Dmax) is less than 50%. For the same compound, in assay [2], the Dmax lay in the range of 50 to 70% and the DC50 lay in the range of 10 to 50 nM.
